How the values were obtained:
[1] = tested on: sandbur (southern sandbur, Cenchrus echinatus); test: Test F pre-/postemergence: sandbur; format: in vivo; details: Preemergence
Method in brief: (§1)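 0–100 visual control scores, taken 14–21 d after application in the greenhouse. Preemergence treatment was made to silt loam soil at sowing. Postemergence sprays hit 1- to 4-leaf plants (2–18 cm) in peat/vermiculite mix. Surfactant-containing non-phytotoxic solvent served as the vehicle.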

[2] = tested on: panicum, fall (fall panicum Panicum dichotomiflorum); test: Test F pre-/postemergence: panicum, fall; format: in vivo; details: Preemergence
Method in brief: as §1

[3] = tested on: Waterhemp; test: Test C preemergence: waterhemp; format: in vivo, Amaranthus rudis; details: 125 g ai/ha, scale 0 to 100, 0 no effect, 100 complete control
[4] = tested on: surinam grass (Brachiaria decumbens); test: Test F pre-/postemergence: surinam grass; format: in vivo; details: Preemergence
Method in brief: as §1

[5] = tested on: bluegrass (annual bluegrass, Poa annua); test: Test D pre-/postemergence: bluegrass; format: in vivo
Method in brief: (§2)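 Applied as a non-phytotoxic solvent formulation with surfactant, compounds were tested preemergence in silt loam and postemergence on seedlings 2 to 18 cm high in peat-vermiculite medium. Evaluation was visual, 0 meaning no effect and 100 complete control, at 14 to 21 days.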

[6] = tested on: windgrass (Apera spica-venti); test: Test D pre-/postemergence: windgrass; format: in vivo
Method in brief: as §2

[7] = tested on: pigweed (Amaranthus retroflexus); test: Test D pre-/postemergence: pigweed; format: in vivo
Method in brief: as §2

[8] = tested on: oat, wild (wild oat, Avena fatua); test: Test D pre-/postemergence: oat, wild; format: in vivo
Method in brief: as §2

[9] = tested on: speedwell (bird's-eye speedwell, Veronica persica); test: Test D pre-/postemergence: speedwell; format: in vivo; details: Preemergence
Method in brief: as §2

[10] = tested on: foxtail, green (green foxtail, Setaria viridis); test: Test D pre-/postemergence: foxtail, green; format: in vivo
Method in brief: as §2

[11] = 16 g ai/ha, scale 0 to 100, 0 no effect, 100 complete control
[12] = 31 g ai/ha, scale 0 to 100, 0 no effect, 100 complete control
[13] = Postemergence, 31 g ai/ha, scale 0 to 100 (0 no effect, 100 complete control)
[14] = Postemergence, 62 g ai/ha, scale 0 to 100 (0 no effect, 100 complete control)
[15] = Postemergence, 125 g ai/ha, scale 0 to 100, 0 no effect, 100 complete control
[16] = Postemergence, 16 g ai/ha, scale 0 to 100
[17] = Preemergence, 16 g ai/ha, scale 0 to 100, 0 no effect, 100 complete control
[18] = Preemergence, 31 g ai/ha, scale 0 to 100, 0 no effect, 100 complete control
[19] = Preemergence, 62 g ai/ha, scale 0 to 100
[20] = Preemergence, 125 g ai/ha, scale 0 to 100
[21] = Postemergence, 31 g ai/ha, scale 0 to 100

CCc1nn(-c2ccc(F)cc2)nc1Cc1ccnc(C(F)(F)F)c1 [Compound 154]
Plant response rating, Sandbur [1, 11]: 0
Plant response rating, Sandbur [1, 12]: 30
Plant response rating, Sandbur ([1]; 125 g ai/ha, scale 0 to 100): 98
Plant response rating, Sandbur ([1]; 250 g ai/ha, scale 0 to 100): 100
Plant response rating, Panicum, Fall [2, 11]: 15
Plant response rating, Panicum, Fall [2, 12]: 90
Plant response rating, Panicum, Fall ([2]; 125 g ai/ha, scale 0 to 100): 100
Plant response rating, Panicum, Fall ([2]; 250 g ai/ha, scale 0 to 100): 100
Plant response rating, Waterhemp [3]: 100
Plant response rating, Surinam Grass [4, 11]: 0
Plant response rating, Surinam Grass [4, 12]: 10
Plant response rating, Surinam Grass ([4]; 125 g ai/ha, scale 0 to 100): 70
Plant response rating, Surinam Grass ([4]; 250 g ai/ha, scale 0 to 100): 90

CCc1nn(-c2ccc(C(F)(F)F)cc2)nc1Cc1ccnc(C(F)(F)F)c1 [Compound 155]
Plant response rating: Bluegrass [5, 13]: 35
Plant response rating: Bluegrass [5, 14]: 75
Plant response rating: Bluegrass [5, 15]: 90
Plant response rating, Bluegrass [5, 16]: 20
Plant response rating, Bluegrass [5, 17]: 15
Plant response rating, Bluegrass [5, 18]: 15
Plant response rating, Bluegrass [5, 19]: 60
Plant response rating, Bluegrass [5, 20]: 85
Plant response rating: Windgrass [6, 14]: 80
Plant response rating: Windgrass [6, 15]: 95
Plant response rating, Windgrass [6, 16]: 20
Plant response rating, Windgrass [6, 21]: 70
Plant response rating, Windgrass [6, 17]: 5
Plant response rating, Windgrass [6, 18]: 10
Plant response rating, Windgrass [6, 19]: 85
Plant response rating, Windgrass [6, 20]: 100
Plant response rating: Pigweed [7, 13]: 75
Plant response rating: Pigweed [7, 14]: 95
Plant response rating: Pigweed [7, 15]: 95
Plant response rating, Pigweed [7, 16]: 70
Plant response rating, Pigweed [7, 17]: 60
Plant response rating, Pigweed [7, 18]: 80
Plant response rating, Pigweed [7, 19]: 100
Plant response rating, Pigweed [7, 20]: 100
Plant response rating, Sandbur ([1]; 125 g ai/ha, scale 0 to 100): 100
Plant response rating, Sandbur ([1]; 250 g ai/ha, scale 0 to 100): 100
Plant response rating: Oat, Wild [8, 13]: 20
Plant response rating: Oat, Wild [8, 14]: 55
Plant response rating: Oat, Wild [8, 15]: 75
Plant response rating, Oat, Wild [8, 16]: 10
Plant response rating, Oat, Wild [8, 17]: 5
Plant response rating, Oat, Wild [8, 18]: 50
Plant response rating, Oat, Wild [8, 19]: 15
Plant response rating, Oat, Wild [8, 20]: 60
Plant response rating, Speedwell [9, 11]: 100
Plant response rating, Speedwell [9, 12]: 100
Plant response rating, Speedwell ([9]; 62 g ai/ha, scale 0 to 100): 100
Plant response rating, Speedwell ([9]; 125 g ai/ha, scale 0 to 100): 100
Plant response rating: Foxtail, Green [10, 13]: 15
Plant response rating: Foxtail, Green [10, 14]: 70
Plant response rating: Foxtail, Green [10, 15]: 80
Plant response rating, Foxtail, Green [10, 16]: 20
Plant response rating, Foxtail, Green [10, 17]: 20
Plant response rating, Foxtail, Green [10, 18]: 65
Plant response rating, Foxtail, Green [10, 19]: 85
Plant response rating, Foxtail, Green [10, 20]: 100
Plant response rating, Panicum, Fall ([2]; 125 g ai/ha, scale 0 to 100): 100
Plant response rating, Panicum, Fall ([2]; 250 g ai/ha, scale 0 to 100): 100
Plant response rating, Waterhemp [3]: 100
Plant response rating, Surinam Grass ([4]; 125 g ai/ha, scale 0 to 100): 90
Plant response rating, Surinam Grass ([4]; 250 g ai/ha, scale 0 to 100): 90

Cc1nn(-c2ccc(F)c(C(F)(F)F)c2)nc1Cc1ccnc(C(F)(F)F)c1 [Compound 156]
Plant response rating: Bluegrass [5, 13]: 65
Plant response rating: Bluegrass [5, 14]: 70
Plant response rating: Bluegrass [5, 15]: 80
Plant response rating, Bluegrass [5, 16]: 15
Plant response rating, Bluegrass [5, 17]: 5
Plant response rating, Bluegrass [5, 18]: 5
Plant response rating, Bluegrass [5, 19]: 40
Plant response rating, Bluegrass [5, 20]: 100
Plant response rating: Windgrass [6, 14]: 70
Plant response rating: Windgrass [6, 15]: 80
Plant response rating, Windgrass [6, 16]: 25
Plant response rating, Windgrass [6, 21]: 50
Plant response rating, Windgrass [6, 17]: 0
Plant response rating, Windgrass [6, 18]: 10
Plant response rating, Windgrass [6, 19]: 85
Plant response rating, Windgrass [6, 20]: 100
Plant response rating: Pigweed [7, 13]: 90
Plant response rating: Pigweed [7, 14]: 90
Plant response rating: Pigweed [7, 15]: 95
Plant response rating, Pigweed [7, 16]: 85
Plant response rating, Pigweed [7, 17]: 50
Plant response rating, Pigweed [7, 18]: 85
Plant response rating, Pigweed [7, 19]: 100
Plant response rating, Pigweed [7, 20]: 100
Plant response rating: Oat, Wild [8, 13]: 15
Plant response rating: Oat, Wild [8, 14]: 20
Plant response rating: Oat, Wild [8, 15]: 65
Plant response rating, Oat, Wild [8, 16]: 10
Plant response rating, Oat, Wild [8, 17]: 5
Plant response rating, Oat, Wild [8, 18]: 10
Plant response rating, Oat, Wild [8, 19]: 25
Plant response rating, Oat, Wild [8, 20]: 90
Plant response rating, Speedwell [9, 11]: 10
Plant response rating, Speedwell [9, 12]: 100
Plant response rating, Speedwell ([9]; 62 g ai/ha, scale 0 to 100): 100
Plant response rating, Speedwell ([9]; 125 g ai/ha, scale 0 to 100): 100
Plant response rating: Foxtail, Green [10, 13]: 25
Plant response rating: Foxtail, Green [10, 14]: 25
Plant response rating: Foxtail, Green [10, 15]: 65
Plant response rating, Foxtail, Green [10, 16]: 10
Plant response rating, Foxtail, Green [10, 17]: 5
Plant response rating, Foxtail, Green [10, 18]: 10
Plant response rating, Foxtail, Green [10, 19]: 30
Plant response rating, Foxtail, Green [10, 20]: 100
Plant response rating, Waterhemp [3]: 100
